According to US6310247A, “7-aryl-6(Z)-heptatrienoic acid retinamides” (Hoffmann-LA Roche Inc., priority 1999, dated 2001):
Where two headings read alike, the source gives them in different places.

Tests used:
MDA 231 cells = assay: Cell growth inhibition: MTT assay, MDA 231 (ER- breast carcinoma); format: cell-based; settings: Homo sapiens, MDA-MB-231, read-out: % inhibition of cell growth compared to no drug control
Protocol: ER- breast carcinoma, human (MDA-231) obtained from ATCC (HTB 22), were grown in Eagle's MEM medium supplemented with non-essential amino acids, sodium pyruvate, and Earle's BSS, 10% FBS, and 13 ng/mL gentamicin. Cells were incubated at 37° C., 4.5% CO2 and 95.5% humidified air.
1. Cell growth inhibition: MTT Assay
The compounds of formula 1 were tested for ability to inhibit cell growth using the standard MTT assay, a tetrazolium-based assay which measures the viability of cells in culture. Cells were harvested upon reaching 70-80% confluency and pelleted. The cells were then resuspended in medium in which FBS was replaced with Hyclone's Charcoal/Dextran stripped FBS, and seeded (2 mL/well) into 6-well plates (Corning) at a density allowing for linear growth over a four day assay period. Compounds of formula 1 (10 mM stock in dimethylsulfoxide (DMSO)) were added 18-24 hours post-seeding. Compound dilutions were prepared in the appropriate growth media and added to the cells for final concentrations of 10, 3.3 and 1 μM in 0.1% DMSO. At 24, 48 and 72 hr. time points, MTT (3-[4,5-dimethylthiazol-2-yl-2,5-diphenyltetrazolium bromide) stock solution (5mg/mL in 1 PBS) was added to the cells plates (625 μL/well) which were then incubated for 2.5 hours. Liquid was aspirated from the wells and 1 mL/well of 95% ethanol was added to solubilize the formazan reaction product. The plates were shaken (Bellco Mini-Orbital Shaker) for 15 minutes. The solubilized formazan was then transferred (50 μls) into a 96-well plate and the optical densities (OD) were measured (Bio-Tek Microplate Reader) at 570 nm and reference wavelength of 660 nm. Percentage of inhibition of cell growth was calculated according to the following formula: [formula]

RKO cells = assay: Apoptosis: cell death detection by ELISA, RKO (colorectal carcinoma); format: cell-based, human; settings: for fold induction at 1 µM / fold induction at 3.3 µM / fold induction at 10 µM: Homo sapiens, RKO, read-out: Fold induction of apoptosis compared to no drug control
Protocol: Colorectal carcinoma, human (RKO) obtained from Dr. Bernie Vogelstein, were grown in Gibco's Delbecco Minimum Essential media (DMEM), high glucose, supplemented with sodium pyruvate, 10% FBS and 13 ng/mL gentamicin. Cells were incubated at 37° C., 4.5% CO2 and 95.5% humidified air.
(§1) 2. Apoptosis: Cell death detection by ELISA:
(§2) Compounds of formula 1 were tested for the ability to cause apoptosis as follows:
(§3) Cells and media were collected, cells were pelleted, resuspended in 100 μl lysis buffer (50 mM Tris-Cl (pH=8.0), 20 mM EDTA, 1% NP-40e) and incubated 30 minutes at 4° C. to lyse. Cell debris was spun down and an aliquot (30 μl) of the […] was removed for protein determination and stored at -20° C. An additional 280 μl of lysis buffer, was added, mixed thoroughly and spun down at 14,000 RPM for 10 minutes at 4° C. An aliquot was removed (180 μl) and the sample was stored at -20° C. until testing.
(§4) A commercially available apoptosis detection kit, obtained from Boehringer Mannheim (Cat. No. 1544-674), was used as per the directions provided with the kit (Cell Death Detection ELISA). However, the protocol was modified in that a 1:40 to 1:100 dilution of sample was prepared, rather than the recommended 1:10 dilution, due to the increase in cell number used to prepare the sample extract and the subsequent increase in ELISA reactivity. The assay measures apoptosis by quantifying the amount of nucleosomal fragmentation from the extracts of cells treated with the test compounds (samples). These nucleosomal fragments, generated by the activation of endonucleases, are a known downstream effector of apoptosis. Antihistone antibodies are used to fix any nucleosomal fragments in the sample to the well of the microtiter plates. The sample is then incubated with anti-DNA antibodies conjugated to peroxidase and subsequently incubated with the peroxidase substrate, ABTS. The resulting colorimetric change is measured spectrophotometrically at 405/490nm.
(§5) The total protein content of each sample was determined for the purpose of normalizing the ELISA values to amount of sample loaded. Microplate assay protocol described in the instruction manual, for (Biorad DC Assay, Cat.#500-0116) section 5.2. The protein concentrations were calculated based upon a linear regression curve.
(§6) d) ELISA assay calculations
(§7) Relative ELISA O.D. readings are determined by subtracting the ELISA plate background O.D. value. No drug control O.D. value (lysis buffer only) was subtracted from sample O.D. value. A correction coefficient (CC), based on the sample protein concentration compared to no drug control, was determined to correct the sample O.D. following subtraction of the background O.D. (BCS O.D.). The fold increase over no drug control is calculated and normalized to the total protein concentration of the samples by multiplying against the correction coefficient.
(§8) To determine the fold increase in ELISA O.D., obtain the following O.D. measurements:
(§9) ELISA plate background--lysis buffer only (EPB);
(§10) no drug treated control--cell sample treated with DMSO (NDT);
(§11) drug treated sample--cell sample treated with a compound of formula 1 (DT) Subtract EPB from NDT (NDT-EPB) and DT (DT-EPB). The fold increase of the treated over the control is then (DT-EPB)/(NDT-EPB).
(§12) To determine the total protein concentration of the samples, obtain the total protein concentration in mg/ul calculated using standard linear regression formula (y=mx+b) based on BSA standards. B=ELISA background. Protein concentration (PC)(mg/ml)=(sample absorbance-b)/x.
(§13) Correction coefficient (cc) is (NDT)(PC)/(DT)(PC).
(§14) Determine fold increase of ELISA (FT) normalized to total PC:
(§15) nDT is DT×cc (which is DT O.D. normalized to PC)
(§16) nNDT is NDT×cc (which is NDT O.D. normalized to PC)
(§17) FI normalized to PC is nDT/nNDT.

MDA-435 cells = assay: Apoptosis: cell death detection by ELISA, MDA-435; format: cell-based, human; settings: for fold induction at 1 µM / fold induction at 3.3 µM / fold induction at 10 µM: Homo sapiens, read-out: Fold induction of apoptosis compared to no drug control
Protocol: ER- breast carcinoma, human (MDA-435) obtained from Dr. Janet Price, MDA Cancer Center, Houston, Tex., were grown in Gibco's RPMI 1640 media supplemented with sodium pyruvate, 10% FBS and 13 ng/mL gentamicin. Cells were incubated at 37° C., 4.5% CO2 and 95.5% humidified air.
as §1, §2, §3, §4, §5, §6, §7, §8, §9, §10, §11, §12, §13, §14, §15, §16, §17

Question: C/C(=C/C=C/C(C)=C/C(=O)Nc1ccc(O)cc1)c1cc(C(F)(F)F)cc(C(F)(F)F)c1 [N-(4-hydroxyphenyl)-(2E,4E,6Z)-7-[3,5-bis(trifluoromethyl)phenyl]-3,7-dimethyl-2,4,6-heptatrienamide] was tested. Which inhibition at 1 µM (MDA 231 cells; 24 hours) did it give?
Answer: 18%

Question: And the inhibition at 3.3 µM (MDA 231 cells; 24 hours)?
Answer: 30%

Question: What about the inhibition at 10 µM (MDA 231 cells; 24 hours) of the same compound?
Answer: 26%

Question: What about the inhibition at 1 µM (MDA 231 cells; 48 hours) of the same compound?
Answer: 39%

Question: What about the inhibition at 3.3 µM (MDA 231 cells; 48 hours) of the same compound?
Answer: 35%

Question: And the inhibition at 10 µM (MDA 231 cells; 48 hours)?
Answer: 61%

Question: What about the inhibition at 1 µM (MDA 231 cells; 72 hours) of the same compound?
Answer: 46%

Question: And the inhibition at 3.3 µM (MDA 231 cells; 72 hours)?
Answer: 62%

Question: What about the inhibition at 10 µM (MDA 231 cells; 72 hours) of the same compound?
Answer: 71%

Question: And the fold induction at 1 µM (RKO cells; 24 hrs)?
Answer: 2

Question: What about the fold induction at 3.3 µM (RKO cells; 24 hrs) of the same compound?
Answer: 14

Question: And the fold induction at 10 µM (RKO cells; 24 hrs)?
Answer: 21

Question: What about the fold induction at 1 µM (RKO cells; 48 hrs) of the same compound?
Answer: 4

Question: And the fold induction at 3.3 µM (RKO cells; 48 hrs)?
Answer: 5

Question: And the fold induction at 10 µM (RKO cells; 48 hrs)?
Answer: 23

Question: And the fold induction at 1 µM (RKO cells; 72 hrs)?
Answer: 1

Question: And the fold induction at 3.3 µM (RKO cells; 72 hrs)?
Answer: 1

Question: What about the fold induction at 10 µM (RKO cells; 72 hrs) of the same compound?
Answer: 15

Question: What about the “Induction of apoptosis (in words)” value (RKO cells; after 24 hours) of the same compound?
Answer: induces significant apoptosis

Question: What about the fold induction at 1 µM (MDA-435 cells; MDA435, 24 h, 24 hrs) of the same compound?
Answer: 3

Question: What about the fold induction at 3.3 µM (MDA-435 cells; MDA435, 24 h, 24 hrs) of the same compound?
Answer: 6

Question: And the fold induction at 10 µM (MDA-435 cells; MDA435, 24 h, 24 hrs)?
Answer: 6

Question: What about the fold induction at 1 µM (MDA-435 cells; MDA435, 48 h, 48 hrs) of the same compound?
Answer: 3

Question: What about the fold induction at 3.3 µM (MDA-435 cells; MDA435, 48 h, 48 hrs) of the same compound?
Answer: 10

Question: What about the fold induction at 10 µM (MDA-435 cells; MDA435, 48 h, 48 hrs) of the same compound?
Answer: 16

Question: And the fold induction at 1 µM (MDA-435 cells; MDA435, 72 h, 72 hrs)?
Answer: 4

Question: What about the fold induction at 3.3 µM (MDA-435 cells; MDA435, 72 h, 72 hrs) of the same compound?
Answer: 12

Question: What about the fold induction at 10 µM (MDA-435 cells; MDA435, 72 h, 72 hrs) of the same compound?
Answer: 34

Question: And the “Induction of apoptosis (in words)” value (MDA-435 cells; after 24 hours)?
Answer: induces significant apoptosis
